Reference: ChEMBL document CHEMBL2074446, “Contribution of P-glycoprotein to efflux of ramosetron, a 5-HT3 receptor antagonist, across the blood-brain barrier” (J Pharm Pharmacol, 2002)

Legend:
Assay type in all cases: functional, cell-based
[1] = target: ATP-dependent translocase ABCB1 (Homo sapiens, UniProt P08183); experiment: TP_TRANSPORTER: uptake in LLC-PK1 cell and LLC-GA5-COL300 cells; details: pig
[2] = target: ATP-dependent translocase ABCB1 (Mus musculus, UniProt P21447); experiment: TP_TRANSPORTER: uptake in L cell and LV500 cell
ATP-dependent translocase ABCB1 (Mus musculus, UniProt P21447), sequence (P21447 whole entry): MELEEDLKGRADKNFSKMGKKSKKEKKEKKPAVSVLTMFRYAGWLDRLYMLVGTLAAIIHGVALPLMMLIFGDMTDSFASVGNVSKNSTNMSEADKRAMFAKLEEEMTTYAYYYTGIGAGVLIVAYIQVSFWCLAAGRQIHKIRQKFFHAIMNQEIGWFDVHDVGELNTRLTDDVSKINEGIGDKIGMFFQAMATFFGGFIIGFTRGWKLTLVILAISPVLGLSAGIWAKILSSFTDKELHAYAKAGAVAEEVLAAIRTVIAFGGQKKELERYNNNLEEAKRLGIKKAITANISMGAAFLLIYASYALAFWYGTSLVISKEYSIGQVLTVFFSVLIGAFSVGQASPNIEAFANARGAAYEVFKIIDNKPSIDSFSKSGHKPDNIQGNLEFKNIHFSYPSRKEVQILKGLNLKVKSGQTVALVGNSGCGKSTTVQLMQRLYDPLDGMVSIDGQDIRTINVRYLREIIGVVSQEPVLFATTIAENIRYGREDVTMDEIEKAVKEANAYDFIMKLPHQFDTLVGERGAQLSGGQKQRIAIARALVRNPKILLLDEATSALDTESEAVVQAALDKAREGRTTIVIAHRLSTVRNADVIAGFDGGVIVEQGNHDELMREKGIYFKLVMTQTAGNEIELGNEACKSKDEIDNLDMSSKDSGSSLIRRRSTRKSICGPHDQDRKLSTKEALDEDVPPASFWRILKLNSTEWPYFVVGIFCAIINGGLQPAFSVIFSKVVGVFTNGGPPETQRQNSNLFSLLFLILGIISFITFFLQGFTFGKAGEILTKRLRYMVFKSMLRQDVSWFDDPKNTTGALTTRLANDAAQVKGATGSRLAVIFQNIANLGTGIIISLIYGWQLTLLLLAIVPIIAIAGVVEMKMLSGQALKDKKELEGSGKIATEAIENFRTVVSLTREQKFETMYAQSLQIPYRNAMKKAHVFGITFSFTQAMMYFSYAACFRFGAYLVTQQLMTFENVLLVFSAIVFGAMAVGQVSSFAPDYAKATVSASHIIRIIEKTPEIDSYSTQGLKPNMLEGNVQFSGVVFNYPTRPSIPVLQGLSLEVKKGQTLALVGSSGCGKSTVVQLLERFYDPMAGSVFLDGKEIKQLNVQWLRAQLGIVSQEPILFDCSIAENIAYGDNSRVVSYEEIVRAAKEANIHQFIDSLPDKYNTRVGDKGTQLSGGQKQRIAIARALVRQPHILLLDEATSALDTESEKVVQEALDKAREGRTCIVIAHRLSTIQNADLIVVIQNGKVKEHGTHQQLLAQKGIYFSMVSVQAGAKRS

[3] = target: ATP-dependent translocase ABCB1 (Mus musculus, UniProt P06795); experiment: TP_TRANSPORTER: uptake, not inhibited by Verapamil in MBEC4 cell
ATP-dependent translocase ABCB1 (Mus musculus, UniProt P06795), sequence (P06795 whole entry): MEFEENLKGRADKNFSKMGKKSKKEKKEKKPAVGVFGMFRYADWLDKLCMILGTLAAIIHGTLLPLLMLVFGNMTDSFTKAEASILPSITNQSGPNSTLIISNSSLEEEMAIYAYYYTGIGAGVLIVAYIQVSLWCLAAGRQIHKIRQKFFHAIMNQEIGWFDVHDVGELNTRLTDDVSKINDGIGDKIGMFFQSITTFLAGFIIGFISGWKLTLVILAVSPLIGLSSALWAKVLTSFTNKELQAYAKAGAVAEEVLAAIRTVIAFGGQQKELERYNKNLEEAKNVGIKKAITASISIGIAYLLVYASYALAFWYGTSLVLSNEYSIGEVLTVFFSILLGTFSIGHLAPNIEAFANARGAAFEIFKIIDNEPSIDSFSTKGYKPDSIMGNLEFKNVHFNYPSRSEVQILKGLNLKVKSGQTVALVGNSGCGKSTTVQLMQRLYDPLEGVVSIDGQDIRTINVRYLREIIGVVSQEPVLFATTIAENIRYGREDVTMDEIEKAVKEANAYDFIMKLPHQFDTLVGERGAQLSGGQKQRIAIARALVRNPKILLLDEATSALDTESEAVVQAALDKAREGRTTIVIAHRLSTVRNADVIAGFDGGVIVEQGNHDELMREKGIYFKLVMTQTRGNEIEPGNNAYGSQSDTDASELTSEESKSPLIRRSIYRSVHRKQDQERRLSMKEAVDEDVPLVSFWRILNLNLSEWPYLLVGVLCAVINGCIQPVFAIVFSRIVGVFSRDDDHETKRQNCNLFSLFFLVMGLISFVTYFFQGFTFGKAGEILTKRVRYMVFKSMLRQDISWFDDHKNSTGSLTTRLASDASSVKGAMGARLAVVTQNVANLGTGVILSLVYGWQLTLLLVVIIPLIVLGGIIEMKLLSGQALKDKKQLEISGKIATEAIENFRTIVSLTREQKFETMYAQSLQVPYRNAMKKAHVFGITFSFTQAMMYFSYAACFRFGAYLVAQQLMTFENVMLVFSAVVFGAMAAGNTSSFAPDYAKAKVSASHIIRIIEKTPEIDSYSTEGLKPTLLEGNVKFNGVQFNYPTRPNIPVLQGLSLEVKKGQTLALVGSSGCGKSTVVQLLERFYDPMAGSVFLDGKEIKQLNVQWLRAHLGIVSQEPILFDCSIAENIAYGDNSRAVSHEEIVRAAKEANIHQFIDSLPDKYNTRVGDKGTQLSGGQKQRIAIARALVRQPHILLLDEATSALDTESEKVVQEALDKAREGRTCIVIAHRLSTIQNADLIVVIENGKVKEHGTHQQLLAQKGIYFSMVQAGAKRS

ATP-dependent translocase ABCB1 (Homo sapiens, UniProt P08183), sequence (P08183 whole entry): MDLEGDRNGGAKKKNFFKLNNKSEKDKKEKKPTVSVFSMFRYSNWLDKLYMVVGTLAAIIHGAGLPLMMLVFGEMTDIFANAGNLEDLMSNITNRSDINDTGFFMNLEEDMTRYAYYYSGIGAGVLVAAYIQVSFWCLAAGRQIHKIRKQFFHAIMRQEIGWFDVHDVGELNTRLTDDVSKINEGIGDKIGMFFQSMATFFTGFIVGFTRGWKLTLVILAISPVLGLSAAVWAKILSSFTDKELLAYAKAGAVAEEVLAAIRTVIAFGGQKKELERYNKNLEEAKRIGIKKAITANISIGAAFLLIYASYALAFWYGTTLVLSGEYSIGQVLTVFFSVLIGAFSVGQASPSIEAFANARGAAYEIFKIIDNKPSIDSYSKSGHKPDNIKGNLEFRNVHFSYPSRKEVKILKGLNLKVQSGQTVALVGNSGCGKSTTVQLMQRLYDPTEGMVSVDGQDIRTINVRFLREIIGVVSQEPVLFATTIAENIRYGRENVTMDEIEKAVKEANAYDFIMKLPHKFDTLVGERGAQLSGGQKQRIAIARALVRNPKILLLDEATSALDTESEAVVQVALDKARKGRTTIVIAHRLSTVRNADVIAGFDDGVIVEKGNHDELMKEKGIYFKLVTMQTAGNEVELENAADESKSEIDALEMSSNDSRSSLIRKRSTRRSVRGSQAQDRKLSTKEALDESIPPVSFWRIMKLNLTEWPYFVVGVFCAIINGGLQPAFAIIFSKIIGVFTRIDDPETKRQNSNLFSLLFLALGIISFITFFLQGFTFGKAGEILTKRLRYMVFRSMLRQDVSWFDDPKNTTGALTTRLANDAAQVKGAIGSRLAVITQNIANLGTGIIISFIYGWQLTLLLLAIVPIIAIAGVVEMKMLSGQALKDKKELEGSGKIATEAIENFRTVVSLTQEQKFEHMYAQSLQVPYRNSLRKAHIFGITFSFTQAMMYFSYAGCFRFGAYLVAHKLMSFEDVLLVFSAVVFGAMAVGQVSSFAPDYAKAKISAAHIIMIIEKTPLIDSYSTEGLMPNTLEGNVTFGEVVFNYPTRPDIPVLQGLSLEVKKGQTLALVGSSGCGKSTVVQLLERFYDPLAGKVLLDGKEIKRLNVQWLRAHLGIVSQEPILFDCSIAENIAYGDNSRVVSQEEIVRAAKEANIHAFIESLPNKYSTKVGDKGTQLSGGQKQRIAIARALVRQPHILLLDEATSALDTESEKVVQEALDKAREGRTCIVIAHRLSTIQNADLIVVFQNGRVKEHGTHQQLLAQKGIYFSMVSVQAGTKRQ

- Activity [1]: substrate [+]
- Activity [2]: substrate [+]
- Activity [3]: is not a substrate [-]
SMILES: Cn1cc(C(=O)[C@@H]2CCc3nc[nH]c3C2)c2ccccc21 [RAMOSETRON]
